Twelve molecules from patent US20240270821A1, “GIP/GLP1/GCG TRI-RECEPTOR AGONISTS AND USES THEREOF” (priority 2023, published 2024) can be followed below.

What all share (type): cell-based
In test [1] the target is T1, hGLP-1R (Homo sapiens, UniProt P43220). The test can be described thus: Functional cAMP activation in the presence of 0.1% casein (no HSA). The note with it: read-out: Relative cAMP EC50, hGLP-1R.
The next test deals with hGcgR (Homo sapiens, UniProt P47871). The description is as above. Particulars: read-out: Relative cAMP EC50, hGcgR.
Sequence of hGcgR (P47871 26-477): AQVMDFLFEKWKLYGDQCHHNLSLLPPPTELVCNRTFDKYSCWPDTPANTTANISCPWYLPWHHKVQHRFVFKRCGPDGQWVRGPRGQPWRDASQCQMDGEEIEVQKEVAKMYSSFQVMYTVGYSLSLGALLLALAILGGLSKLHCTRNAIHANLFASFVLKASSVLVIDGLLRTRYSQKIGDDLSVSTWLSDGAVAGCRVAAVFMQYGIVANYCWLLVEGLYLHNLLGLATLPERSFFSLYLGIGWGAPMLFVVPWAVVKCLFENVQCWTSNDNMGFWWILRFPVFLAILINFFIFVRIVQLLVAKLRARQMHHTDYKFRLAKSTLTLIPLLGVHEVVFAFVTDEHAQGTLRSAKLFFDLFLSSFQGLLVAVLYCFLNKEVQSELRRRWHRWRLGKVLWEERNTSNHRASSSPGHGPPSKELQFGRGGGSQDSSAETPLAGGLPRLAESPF
In test [2] the target is T2, hGIPR (Homo sapiens, UniProt P48546).
T2 sequence (P48546 22-466): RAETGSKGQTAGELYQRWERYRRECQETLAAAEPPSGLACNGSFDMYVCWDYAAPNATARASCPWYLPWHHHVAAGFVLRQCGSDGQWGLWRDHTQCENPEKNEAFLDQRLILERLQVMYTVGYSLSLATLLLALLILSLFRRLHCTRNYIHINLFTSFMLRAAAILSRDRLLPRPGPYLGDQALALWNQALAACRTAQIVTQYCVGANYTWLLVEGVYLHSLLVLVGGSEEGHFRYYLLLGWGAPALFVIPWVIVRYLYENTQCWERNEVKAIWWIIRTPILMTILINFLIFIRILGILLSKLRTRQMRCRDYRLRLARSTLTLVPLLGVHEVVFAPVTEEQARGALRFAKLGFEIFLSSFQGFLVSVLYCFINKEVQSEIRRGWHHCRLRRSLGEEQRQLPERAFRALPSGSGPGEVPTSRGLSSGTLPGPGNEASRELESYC
The test can be described thus: Functional cAMP activity in the presence of 1% HSA. The note with it: read-out: cAMP Rel EC50, hGIPR.

The target of the next test is human GcgR (Homo sapiens, UniProt P47871). The test is described as follows: Functional cAMP activity in the presence of 1% HSA. The note with it: read-out: cAMP Rel EC50, hGcgR.
Sequence of human GcgR (P47871 26-477): as the sequence (P47871 26-477) above
For test [3], the target named is T1, hGLP-1R. The test can be described thus: Functional cAMP activity in the presence of 1% HSA. Particulars: read-out: cAMP Rel EC50, hGLP-1R.
The target in test [4] is T2, hGIPR. The test is described as follows: Functional cAMP activation in the presence of 0.1% casein (no HSA). The note with it: read-out: Relative cAMP EC50, hGIPR.
Setting [5] is: 0.1% casein, no HSA, geometric mean.
Setting [6] is: in the presence of 0.1% casein (no HSA), geometric mean.
[7] abbreviates: in the presence of 0.1% casein (no HSA), geometric mean of relative EC50.
[8] abbreviates: HEK-293 clonal cell line, 1% HSA, geometric mean of relative EC50.
The mark [9] stands for this setting: HEK-293 clonal cell line, in the presence of 1% HSA, geometric mean of relative EC50.

Read-outs that look alike come from different tables or passages of the source. Starred links: 1 amine or outer side, 2 acyl side, 3 side chain; linkers in the order of their positions; H or OH if unused. Non-standard residues stand in square brackets, D forms with d. Residues, ends and D or L forms follow the SMILES beside them. Groups on a side chain read outwards from the residue. No end group written: not given here. *: point of attachment. C20 diacid = O=C(O)CCCCCCCCCCCCCCCCCCC(=O)*; C18 diacid = O=C(O)CCCCCCCCCCCCCCCCC(=O)*; αMePhe(2-F) = C[C@](N)(Cc1ccccc1F)C(=O)O; γGlu = O=C(O)[C@H](CCC(=O)[*:2])N[*:1]; αMe4Pal = C[C@](N)(Cc1ccncc1)C(=O)O; αMeY = C[C@](N)(Cc1ccc(O)cc1)C(=O)O; 4Pal = N[C@@H](Cc1ccncc1)C(=O)O; αMeL = CC(C)C[C@](C)(N)C(=O)O; αMeS = C[C@](N)(CO)C(=O)O; Orn = NCCC[C@H](N)C(=O)O; AEEA = NCCOCCOCC(=O)O; Aib = CC(C)(N)C(=O)O

As usually defined, the EC50 is the midpoint of the concentration-response curve.
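Throughout, for Relative cAMP EC50, hGIPR: intracellular cAMP rise after 30 min at 37 °C read by HTRF against a standard curve, scaled between buffer alone (0%) and top control ligand concentration (100%), four-parameter fit.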
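Throughout, for Relative cAMP EC50, hGLP-1R: intracellular cAMP rise after 30 min at 37 °C read by HTRF, normalized between buffer only (0%) and maximal control ligand (100%), four-parameter variable-slope fit.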
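Throughout, for Relative cAMP EC50, hGcgR: intracellular cAMP rise after 30 min at 37 °C, read by HTRF against a cAMP standard curve, scaled from buffer only (0%) to maximal control ligand response (100%).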

T1 sequence (P43220 24-463): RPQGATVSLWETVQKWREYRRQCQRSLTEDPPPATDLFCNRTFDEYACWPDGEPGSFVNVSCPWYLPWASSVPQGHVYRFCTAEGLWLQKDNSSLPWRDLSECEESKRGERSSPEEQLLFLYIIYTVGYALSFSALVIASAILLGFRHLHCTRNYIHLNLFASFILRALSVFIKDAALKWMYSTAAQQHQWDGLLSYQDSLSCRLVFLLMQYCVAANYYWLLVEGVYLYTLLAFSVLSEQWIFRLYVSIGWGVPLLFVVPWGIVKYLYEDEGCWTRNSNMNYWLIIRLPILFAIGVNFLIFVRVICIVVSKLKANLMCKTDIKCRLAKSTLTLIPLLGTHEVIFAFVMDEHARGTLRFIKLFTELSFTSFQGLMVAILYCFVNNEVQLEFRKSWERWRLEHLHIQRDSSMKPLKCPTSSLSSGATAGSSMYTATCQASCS

As to “H-Y[Aib]QGT[αMePhe(2-F)]TSD[4Pal][αMeS]I[αMeL]LD[Orn]K([AEEA-γGlu-C18 diacid])AQ[Aib][Orn]FIEYLIEGGPSSGEPPPEEG-NH2 [Example 476]”, the EC50 is 0.164 nM on hGLP-1R [1]; 1.34 nM at hGcgR; 1.29 nM at hGIPR [2]; 90.2 nM at human GcgR; 14.6 nM on hGLP-1R [3]; 0.0131 nM on hGIPR [4].
Take “H-Y[Aib]QGT[αMePhe(2-F)]TSD[4Pal][αMeS]I[αMeL]LD[Orn]K([AEEA-γGlu-C18 diacid])AQ[αMe4Pal]EFI[dE][αMeY]LIEGGPPSGEPPPEGE-NH2 [Example 1191]”: the EC50 at hGLP-1R [1] (setting [5]) is 0.945 nM; at hGcgR (setting [5]), 3.06 nM; on hGIPR [2], 0.931 nM; on human GcgR, 243 nM; at hGLP-1R [3] it was 82.3 nM; on hGIPR [4] (setting [5]), 0.00992 nM.
Turning to “H-Y[Aib]QGTFTSDFS[Orn][αMeL]LDKK([AEEA-γGlu-C18 diacid])AQ[Aib]AFIEYLLAGGPSSGAPPPSGE[AEEA]-NH2 [Example 91]”, the concentration for a half-maximal effect (EC50) on hGLP-1R [1] (setting [6]) came to 3.39 nM; at hGcgR (setting [6]) it was 9.13 nM; on hGIPR [2] it was 23.9 nM; on human GcgR, 1200 nM; on hGLP-1R [3] it was 356 nM; on hGIPR [4] (setting [6]), 0.243 nM.
Regarding `CC[C@H](C)[C@H](NC(=O)[C@H](CO)NC(=O)[C@H](Cc1ccc(O)cc1)NC(=O)[C@H](CC(=O)O)NC(=O)[C@H](CO)NC(=O)[C@@H](NC(=O)[C@](C)(Cc1ccccc1F)NC(=O)[C@@H](NC(=O)CNC(=O)[C@H](CCC(N)=O)NC(=O)C(C)(C)NC(=O)[C@@H](N)Cc1ccc(O)cc1)[C@@H](C)O)[C@@H](C)O)C(=O)N[C@@H](CC(C)C)C(=O)N[C@@H](CC(C)C)C(=O)N[C@@H](CC(=O)O)C(=O)N[C@@H](CCCCN)C(=O)N[C@@H](CCCCNC(=O)CC[C@H](NC(=O)CC[C@H](NC(=O)CCCCCCCCCCCCCCCCC(=O)O)C(=O)O)C(=O)O)C(=O)N[C@@H](C)C(=O)N[C@@H](CCC(N)=O)C(=O)NC(C)(C)C(=O)N[C@@H](CC(N)=O)C(=O)N[C@@H](Cc1ccccc1)C(=O)N[C@H](C(=O)N[C@@H](CCC(=O)O)C(=O)N[C@@H](Cc1ccc(O)cc1)C(=O)N[C@@H](CC(C)C)C(=O)N[C@@H](CCC(=O)O)C(=O)N[C@@H](CCC(=O)O)C(=O)NCC(=O)NCC(=O)N1CCC[C@H]1C(=O)N[C@@H](CO)C(=O)N[C@@H](CO)C(=O)NCC(=O)N[C@@H](C)C(=O)N1CCC[C@H]1C(=O)N1CCC[C@H]1C(=O)N1CCC[C@H]1C(=O)N[C@@H](CO)C(N)=O)[C@@H](C)CC` [Example 416] (H-Y[Aib]QGT[αMePhe(2-F)]TSDYSILLDKK([γGlu-γGlu-C18 diacid])AQ[Aib]NFIEYLEEGGPSSGAPPPS-NH2), the EC50 at hGLP-1R [1] was determined as 0.331 nM; on hGcgR, 2.08 nM; on hGIPR [2], 27.6 nM; at human GcgR, 348 nM; on hGLP-1R [3], 40.8 nM; at hGIPR [4], 0.0393 nM.
Turning to “H-Y[Aib]QGT[αMePhe(2-F)]TSD[4Pal][αMeS]I[αMeL]LD[Orn]K([γGlu-γGlu-C18 diacid])AQ[Aib][Orn]FI[dE][αMeY]LIEGGPSSGEPPPSEG-NH2 [Example 480]”, the EC50 was found to be 0.215 nM on hGLP-1R [1]; 1.47 nM at hGcgR; 0.722 nM at hGIPR [2]; 65.5 nM on human GcgR; 8.39 nM at hGLP-1R [3]; 0.0107 nM at hGIPR [4].
Turning to “H-Y[Aib]QGT[αMePhe(2-F)]TSD[4Pal]SI[αMeL]LDKK([γGlu-γGlu-C18 diacid])AQ[Aib][Orn]FIEYLQEGGPSSGEPPPEGSEE-NH2 [Example 653]”, the EC50 on hGLP-1R [1] (setting [7]) turned out to be 0.426 nM; at hGcgR (setting [7]) it was 7.29 nM; at hGIPR [2] (setting [8]), 1.38 nM; at human GcgR (setting [8]), 542 nM; at hGLP-1R [3] (setting [8]) it was 25 nM; at hGIPR [4] (setting [7]), 0.0303 nM.
As for “H-Y[Aib]QGTFTSDFS[Orn][αMeL]LDKK([AEEA-γGlu-C20 diacid])AQ[Aib]AFIEWLLAGGPSSGEPPPSGE-NH2 [Example 103]”, the EC50 on hGLP-1R [1] (setting [6]) was 3.27 nM; on hGcgR (setting [6]), 10.5 nM; on hGIPR [2] it was 35.1 nM; on human GcgR, 2590 nM; at hGLP-1R [3], 482 nM; at hGIPR [4] (setting [6]), 0.2 nM.
In the case of `CC[C@H](C)[C@H](NC(=O)[C@H](Cc1ccccc1)NC(=O)[C@H](CCCN)NC(=O)C(C)(C)NC(=O)[C@H](CCC(N)=O)NC(=O)[C@H](C)NC(=O)[C@H](CCCCNC(=O)COCCOCCNC(=O)CC[C@H](NC(=O)CCCCCCCCCCCCCCCCC(=O)O)C(=O)O)NC(=O)[C@H](CCCN)NC(=O)[C@H](CC(=O)O)NC(=O)[C@H](CC(C)C)NC(=O)[C@](C)(CC(C)C)NC(=O)[C@@H](NC(=O)[C@](C)(CO)NC(=O)[C@H](Cc1ccncc1)NC(=O)[C@H](CC(=O)O)NC(=O)[C@H](CO)NC(=O)[C@@H](NC(=O)[C@](C)(Cc1ccccc1F)NC(=O)[C@@H](NC(=O)CNC(=O)[C@H](CCC(N)=O)NC(=O)C(C)(C)NC(=O)[C@@H](N)Cc1ccc(O)cc1)[C@@H](C)O)[C@@H](C)O)[C@@H](C)CC)C(=O)N[C@H](CCC(=O)O)C(=O)N[C@@H](Cc1ccc(O)cc1)C(=O)N[C@@H](CC(C)C)C(=O)N[C@@H](CC(C)C)C(=O)N[C@@H](CCC(=O)O)C(=O)NCC(=O)NCC(=O)N1CCC[C@H]1C(=O)N[C@@H](CO)C(=O)N[C@@H](CO)C(=O)NCC(=O)N[C@@H](CCC(=O)O)C(=O)N1CCC[C@H]1C(=O)N1CCC[C@H]1C(=O)N1CCC[C@H]1C(=O)N[C@@H](CCC(=O)O)C(N)=O` [Example 460] (H-Y[Aib]QGT[αMePhe(2-F)]TSD[4Pal][αMeS]I[αMeL]LD[Orn]K([AEEA-γGlu-C18 diacid])AQ[Aib][Orn]FI[dE]YLLEGGPSSGEPPPE-NH2), the EC50 worked out at 0.636 nM on hGLP-1R [1]; 1.89 nM at hGcgR; 8.93 nM on hGIPR [2]; 142 nM at human GcgR; 31.1 nM at hGLP-1R [3]; 0.0624 nM on hGIPR [4].
Regarding “H-Y[Aib]QGTFTSD[4Pal]S[Orn][αMeL]LD[Orn]K([γGlu-γGlu-C18 diacid])AQ[αMe4Pal]EFIE[αMeY]LLAGGPSSGAPPPSGSEE-NH2 [Example 996]”, the EC50 at hGLP-1R [1] (setting [6]) was 98.1 nM; at hGcgR (setting [6]), 14.9 nM; at hGIPR [2] (setting [9]), 11.2 nM; at human GcgR (setting [9]), 1160 nM; on hGLP-1R [3] (setting [9]), 4810 nM; at hGIPR [4] (setting [6]) it was 0.2 nM.
For the molecule “H-Y[Aib]QGTFTSD[4Pal]SQ[αMeL]LD[Orn]K([dE-γGlu-C18 diacid])AQ[αMe4Pal]AFIE[αMeY]LIE[Aib]GPSSGEPPPSGSEE-NH2 [Example 1103]”, the concentration giving a half-maximal response (EC50) at hGLP-1R [1] (setting [6]) worked out at 1.06 nM; at hGcgR (setting [6]), 11.1 nM; on hGIPR [2] it was 19.5 nM; on human GcgR, 1350 nM; at hGLP-1R [3], 183 nM; on hGIPR [4] (setting [6]), 0.0723 nM.
“Y[Aib]QGTFTSD[4Pal]SQ[αMeL]LD[Orn]K([AEEA-γGlu-C18 diacid])AQ[αMe4Pal]AFIE[αMeY]LLEGGPSSGAPPPSGS-NH2 [Example 932]”: the EC50 at hGLP-1R [1] (setting [6]) was 1.61 nM; on hGcgR (setting [6]), 2.67 nM; on hGIPR [2], 25 nM; on human GcgR, 513 nM; at hGLP-1R [3], 249 nM; on hGIPR [4] (setting [6]), 0.188 nM.
On to “H-Y[Aib]QGT[αMePhe(2-F)]TSDFSILLDKQAQK([AEEA-AEEA-γGlu-C20 diacid])AFIEYLLEGGPSSGEPPPSEG-NH2 [Example 346]”, for which the EC50 at hGLP-1R [1] (setting [6]) was determined as 1.17 nM; on hGcgR (setting [6]), 15.6 nM; at hGIPR [2], 28.3 nM; at human GcgR it was 4310 nM; at hGLP-1R [3], 514 nM; at hGIPR [4] (setting [6]) it was 0.0738 nM.
